Measurements from ChEMBL document CHEMBL1165872, “Synthesis and molecular docking studies of 1-phenyl-4-glycosyl-dihydropyridines as potent antileishmanial agents” (Eur J Med Chem, 2010).
Converted amounts (≈) assume the structure as drawn.

How the values were obtained:
[1] = tested on: Leishmania donovani; assay: Antileishmanial activity against Leishmania donovani MHOM/IN/Dd8 amastigote carrying firefly luciferase gene infected in mouse J774A1 cells assessed as relative luminescence unit after 72 hrs; assay type: functional, organism-based, J774.A1
[2] = Cytotoxicity against mouse J774A1 cells after 72 hrs by MTT assay; assay type: cell-based, J774.A1
[3] = tested on: Leishmania donovani; assay: Antileishmanial activity against Leishmania donovani MHOM/IN/Dd8 promastigote carrying firefly luciferase gene assessed as relative luminescence unit at 40 ug/mL after 72 hrs; assay type: functional; details: MHOM/IN/Dd8, 72 h
[4] = tested on: Leishmania donovani; assay: Antileishmanial activity against Leishmania donovani MHOM/IN/Dd8 promastigote carrying firefly luciferase gene assessed as relative luminescence unit after 72 hrs; assay type: functional, organism-based
[5] = Selectivity index, ratio of CC50 for mouse J774A1 cells to IC50 for Leishmania donovani MHOM/IN/Dd8 amastigote; assay type: functional, J774.A1
[6] = tested on: Leishmania donovani; assay: Antileishmanial activity against Leishmania donovani MHOM/IN/Dd8 amastigote infected in hamster assessed as inhibition of amastigote multiplication at 50 mg/kg, ip for 5 days; assay type: functional; details: 120 h, route intraperitoneal
[7] = tested on: Leishmania donovani; assay: Antileishmanial activity against Leishmania donovani MHOM/IN/Dd8 amastigote infected in hamster assessed as inhibition of amastigote multiplication at 30 mg/kg, po for 5 days; assay type: functional; details: MHOM/IN/Dd8, 120 h
[8] = tested on: Leishmania donovani; assay: Antileishmanial activity against Leishmania donovani MHOM/IN/Dd8 amastigote infected in hamster assessed as inhibition of amastigote multiplication at 40 mg/kg, ip for 5 days; assay type: functional; details: 120 h, route intraperitoneal
[9] = Leishmania donovani, MHOM/IN/Dd8, J774.A1, 72 h, read-out: IC50
[10] = Leishmania donovani, MHOM/IN/Dd8, 72 h, read-out: IC50

IC50 [1, 9] [µg/mL]	IC50 [4, 10] [µg/mL]	IC50 ([1]; j774.a1)	IC50 [4]	Structure (SMILES)	CC50 at 72 h [2] [µg/mL]	inhibition at 40 µg/mL [3] [%]	Ratio CC50/IC50 [5]	inhibition in vivo at 50 mg/kg [6] [%]	inhibition in vivo at 30 mg/kg [7] [%]	inhibition in vivo at 40 mg/kg [8] [%]
4.89 (≈ 8.68 µM)	3.62 (≈ 6.42 µM)	–	–	COC(=O)C1=C(C)N(c2ccc(C)cc2)C(C)=C(C(=O)OC)C1[C@@H]1O[C@H]2OC(C)(C)O[C@H]2[C@@H]1OCc1ccccc1	7.66 (≈ 13.6 µM)	> 80	–	–	–	–
4.42 (≈ 8.78 µM)	12.4 (≈ 24.6 µM)	–	–	COC(=O)C1=C(C)N(c2ccc(OC)cc2)C(C)=C(C(=O)OC)C1[C@@H]1O[C@H]2OC(C)(C)O[C@H]2[C@@H]1OC	18.6 (≈ 37 µM)	> 80	4.21	–	–	–
3.57 (≈ 6.46 µM)	0.88 (≈ 1.59 µM)	–	–	COC(=O)C1=C(C)N(c2ccc(Br)cc2)C(C)=C(C(=O)OC)C1[C@@H]1O[C@H]2OC(C)(C)O[C@H]2[C@@H]1OC	48.5 (≈ 87.8 µM)	> 80	13.58	43.9	–	–
6.18 (≈ 11.6 µM)	0.22 (≈ 0.414 µM)	–	–	CCOC(=O)C1=C(C)N(c2ccccc2OC)C(C)=C(C(=O)OCC)C1[C@@H]1O[C@H]2OC(C)(C)O[C@H]2[C@@H]1OC	49.7 (≈ 93.5 µM)	> 80	8.04	49.7	–	–
12.1 (≈ 29.7 µM)	0.643 (≈ 1.58 µM)	–	–	CCCCCCCCCCCCCCCCOP(=O)([O-])OCC[N+](C)(C)C [MILTEFOSINE]	31.3 (≈ 76.8 µM)	–	2.58	–	95	–
3.59 (≈ 10.5 µM)	3.23 (≈ 9.49 µM)	–	–	N=C(N)c1ccc(OCCCCCOc2ccc(C(=N)N)cc2)cc1 [PENTAMIDINE]	3.91 (≈ 11.5 µM)	–	1.08	–	–	92

The next lines start with the compound.

Structure (SMILES)	IC50 [1, 9] [µg/mL]	IC50 [4, 10] [µg/mL]	IC50 ([1]; j774.a1)	IC50 [4]	CC50 at 72 h [2] [µg/mL]	inhibition at 40 µg/mL [3] [%]	Ratio CC50/IC50 [5]	inhibition in vivo at 50 mg/kg [6] [%]	inhibition in vivo at 30 mg/kg [7] [%]	inhibition in vivo at 40 mg/kg [8] [%]
COC(=O)C1=C(C)N(c2ccc(OC)cc2)C(C)=C(C(=O)OC)C1[C@@H]1O[C@H]2OC(C)(C)O[C@H]2[C@@H]1OCc1ccccc1	0.75 (≈ 1.29 µM)	1.94 (≈ 3.35 µM)	–	–	14.1 (≈ 24.4 µM)	> 80	18.93	26.8	–	–
CCOC(=O)C1=C(C)N(c2ccc(OC)cc2)C(C)=C(C(=O)OCC)C1[C@@H]1O[C@H]2OC(C)(C)O[C@H]2[C@@H]1OCc1ccccc1	8.08 (≈ 13.3 µM)	1.65 (≈ 2.72 µM)	–	–	59.9 (≈ 98.6 µM)	> 80	7.42	–	–	–
COC(=O)C1=C(C)N(c2ccc(Cl)cc2)C(C)=C(C(=O)OC)C1[C@@H]1O[C@H]2OC(C)(C)O[C@H]2[C@@H]1OCc1ccccc1	3.8 (≈ 6.51 µM)	1.86 (≈ 3.18 µM)	–	–	4.22 (≈ 7.23 µM)	> 80	1.109	–	–	–
COC(=O)C1=C(C)N(c2ccc(N)cc2)C(C)=C(C(=O)OC)C1[C@@H]1O[C@H]2OC(C)(C)O[C@H]2[C@@H]2OC(C)(C)O[C@@H]21	–	–	Not Active	Not Active	–	> 80	–	–	–	–
COC(=O)C1=C(C)N(c2ccc(Cl)c(Cl)c2)C(C)=C(C(=O)OC)C1[C@@H]1O[C@H]2OC(C)(C)O[C@H]2[C@@H]1O	10.1 (≈ 19.2 µM)	3.72 (≈ 7.04 µM)	–	–	29.9 (≈ 56.7 µM)	> 80	2.96	–	–	–
CCOC(=O)C1=C(C)N(c2ccc(C)cc2)C(C)=C(C(=O)OCC)C1[C@@H]1O[C@H]2OC(C)(C)O[C@H]2[C@@H]1OC	–	–	Not Active	Not Active	–	> 80	–	–	–	–
COC(=O)C1=C(C)N(c2ccc(Cl)cc2)C(C)=C(C(=O)OC)C1[C@@H]1O[C@H]2OC(C)(C)O[C@H]2[C@@H]1OC	19.1 (≈ 37.5 µM)	1.94 (≈ 3.82 µM)	–	–	82.4 (≈ 162 µM)	> 80	4.32	–	–	–
COC(=O)C1=C(C)N(c2ccc(F)cc2)C(C)=C(C(=O)OC)C1[C@@H]1O[C@H]2OC(C)(C)O[C@H]2[C@@H]1OCc1ccccc1	–	3.67 (≈ 6.47 µM)	Not Active	–	–	> 80	–	–	–	–
COC(=O)C1=C(C)N(c2ccc(C)cc2)C(C)=C(C(=O)OC)C1[C@@H]1O[C@H]2OC(C)(C)O[C@H]2[C@@H]1OC	4.45 (≈ 9.13 µM)	1.74 (≈ 3.57 µM)	–	–	33.1 (≈ 67.8 µM)	> 80	7.43	58.8	–	–
COC(=O)C1=C(C)N(c2ccc(OC)cc2)C(C)=C(C(=O)OC)C1[C@@H]1O[C@H]2OC(C)(C)O[C@H]2[C@@H]2OC(C)(C)O[C@@H]21	–	–	Not Active	Not Active	–	> 80	–	–	–	–
COC(=O)C1=C(C)N(c2ccc(Cl)cc2)C(C)=C(C(=O)OC)C1[C@@H]1O[C@H]2OC(C)(C)O[C@H]2[C@@H]2OC(C)(C)O[C@@H]21	14.3 (≈ 25.4 µM)	4.17 (≈ 7.39 µM)	–	–	15.2 (≈ 27 µM)	> 80	1.06	–	–	–
COC(=O)C1=C(C)N(c2ccc(Cl)cc2)C(C)=C(C(=O)OC)C1[C@@H]1O[C@H]2OC(C)(C)O[C@H]2[C@@H]1O	3.85 (≈ 7.79 µM)	0.86 (≈ 1.74 µM)	–	–	35.5 (≈ 71.9 µM)	> 80	9.21	44.9	–	–
